Values quoted from earlier work, collected in patent US6849628B2, “Optically active compounds” (The University of Strathclyde, priority 1986, dated 2005).

Columns and labels:
[1] = biological target: T1, thymidylate synthase from L. casei (Lacticaseibacillus casei, UniProt P00469); settings: Leary et al 1973
T1 sequence (P00469 1-316): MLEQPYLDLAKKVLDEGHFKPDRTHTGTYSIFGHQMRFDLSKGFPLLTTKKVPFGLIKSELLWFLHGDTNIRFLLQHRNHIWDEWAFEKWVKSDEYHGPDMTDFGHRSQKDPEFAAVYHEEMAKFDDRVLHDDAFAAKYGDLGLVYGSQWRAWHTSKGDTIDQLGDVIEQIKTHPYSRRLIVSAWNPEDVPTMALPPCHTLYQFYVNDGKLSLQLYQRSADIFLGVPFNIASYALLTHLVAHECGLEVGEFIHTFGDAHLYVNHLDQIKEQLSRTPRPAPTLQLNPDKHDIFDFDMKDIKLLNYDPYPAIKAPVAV

[2] = biological target: 5,10-methylene tetrahydrofolate dehydrogenase from E. coli (Escherichia coli, UniProt P24186); settings: Scott and Donaldson 1964
[3] = biological target: T2, glycinamide ribonucleotide (GAR) formyl-transferase from chicken liver (Gallus gallus, UniProt P21872); settings: Smith, Benkovic and Benkovic 1981
T2 construct: host or cells: chicken liver
T2 sequence (P21872 1-1003): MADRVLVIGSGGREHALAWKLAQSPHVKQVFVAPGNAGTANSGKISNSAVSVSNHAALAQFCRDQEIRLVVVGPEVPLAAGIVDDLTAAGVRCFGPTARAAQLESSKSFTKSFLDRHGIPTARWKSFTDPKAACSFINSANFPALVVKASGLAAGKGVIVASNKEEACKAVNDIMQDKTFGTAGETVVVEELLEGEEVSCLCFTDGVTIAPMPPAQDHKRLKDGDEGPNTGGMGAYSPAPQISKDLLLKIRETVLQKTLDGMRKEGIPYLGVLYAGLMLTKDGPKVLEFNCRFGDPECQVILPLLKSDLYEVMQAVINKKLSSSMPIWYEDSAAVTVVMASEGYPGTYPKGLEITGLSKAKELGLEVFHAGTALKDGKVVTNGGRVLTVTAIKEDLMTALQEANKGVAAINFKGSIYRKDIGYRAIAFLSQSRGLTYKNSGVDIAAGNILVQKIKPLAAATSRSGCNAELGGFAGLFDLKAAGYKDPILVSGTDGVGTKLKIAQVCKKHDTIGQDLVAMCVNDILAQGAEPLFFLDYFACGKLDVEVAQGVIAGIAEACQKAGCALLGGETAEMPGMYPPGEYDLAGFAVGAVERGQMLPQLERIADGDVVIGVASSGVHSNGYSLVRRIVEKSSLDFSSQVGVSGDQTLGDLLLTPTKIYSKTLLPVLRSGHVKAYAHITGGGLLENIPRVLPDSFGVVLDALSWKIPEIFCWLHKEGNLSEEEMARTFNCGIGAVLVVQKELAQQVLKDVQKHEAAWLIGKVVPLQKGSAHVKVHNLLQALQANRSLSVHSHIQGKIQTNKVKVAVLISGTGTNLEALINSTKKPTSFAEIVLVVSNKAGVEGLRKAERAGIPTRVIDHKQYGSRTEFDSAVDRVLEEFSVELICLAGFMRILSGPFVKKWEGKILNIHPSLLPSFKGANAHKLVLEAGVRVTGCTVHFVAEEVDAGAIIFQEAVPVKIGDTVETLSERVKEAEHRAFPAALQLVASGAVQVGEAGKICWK

one-carbon metabolism = settings: Montgomery et al 1981; only the (6S) diastereoisomer is effective

Compound: Nc1nc2c(c(=O)[nH]1)N1CN(c3ccc(C(=O)N[C@@H](CCC(=O)O)C(=O)O)cc3)CC1CN2 (single isomer, unassigned) [non-natural diastereoisomer of 5,10-methylene tetrahydrofolate, 5,10-methylene tetrahydrofolate]
- inhibition of thymidylate synthase [1]: inhibited
- inhibition of 5,10-methylene tetrahydrofolate dehydrogenase [2]: inhibited

Compound: Nc1nc2c(c(=O)[nH]1)NC(CN(C=O)c1ccc(C(=O)N[C@@H](CCC(=O)O)C(=O)O)cc1)CN2 (single isomer, unassigned) [non-natural diastereoisomer of 10-formyltetrahydrofolate, 10-formyltetrahydrofolate]
- inhibition of GAR formyl-transferase [3]: potent competitive inhibitor

Compound: calcium 5-formyl-(6S) tetrahydrofolate [Ib]
- effectiveness in restoring one-carbon metabolism (one-carbon metabolism): effective in restoring one-carbon metabolism
